Results as given in ChEMBL document CHEMBL2429776, “Cyclic 3-alkyl pyridinium alkaloid monomers from a New Zealand Haliclona sp. marine sponge” (J Nat Prod, 2013).
Active and inactive are the calls of the source. The calls are words filed in the database; no cut-off is given here.

Legend:
Format in all cases: functional, organism-based
Candida albicans [1] = assay: Antifungal activity against Candida albicans ATCC 10231 at 8 ug after 24 hrs by disk-diffusion assay
Enterococcus faecalis [2] = assay: Antimicrobial activity against Enterococcus faecalis ATCC 19433 at 20 ug after 24 hrs by disk-diffusion assay
Enterococcus faecalis [3] = assay: Antimicrobial activity against Enterococcus faecalis ATCC 19433 at 8 ug after 24 hrs by disk-diffusion assay
Candida albicans [4] = assay: Antifungal activity against Candida albicans ATCC 10231 at 2 ug after 24 hrs by disk-diffusion assay
Enterococcus faecalis [5] = assay: Antimicrobial activity against Enterococcus faecalis ATCC 19433 at 2 ug after 24 hrs by disk-diffusion assay
Saccharomyces cerevisiae = assay: Antifungal activity against Saccharomyces cerevisiae YCG 117 after 18 hrs; details: YCG 117, 18 h
Candida albicans [6] = assay: Antifungal activity against Candida albicans ATCC 10231 at 20 ug after 24 hrs by disk-diffusion assay

Row | SMILES | Activity (Candida albicans [1]) | Activity (Enterococcus faecalis [2]) | Activity (Enterococcus faecalis [3]) | Activity (Candida albicans [4]) | Activity (Enterococcus faecalis [5]) | IC50 (Saccharomyces cerevisiae) [µg/mL] | Activity (Candida albicans [6])
1 | c1cc2c[n+](c1)CCCCCCCCCCCCC2 | inactive | inactive | inactive | inactive | inactive | 1.5 | inactive
2 | C1=C\CCCCC[n+]2cccc(c2)CCCCCC/1 | inactive | inactive | inactive | inactive | inactive | 1.5 | inactive
3 | C1=C\CCCCCC[n+]2cccc(c2)CCCCCC/1 | inactive | inactive | inactive | inactive | inactive | 1.5 | inactive
